# Patent US3943137A, “Acronycine derivatives” (University of Kansas Endowment Association, priority 1973, dated 1976)
# Like-named read-outs stand apart in the source and are kept apart here.
# What was measured:
# [1] = Solubility; type: physicochemical; conditions: water
# [2] = system: mouse neoplasms; conditions: cited from earlier work
# [3] = system: adenocarcinoma 755; conditions: oral and subcutaneous routes; cited from earlier work
# [4] = system: C-1498 leukemia; conditions: oral and subcutaneous routes; cited from earlier work
# [5] = system: X-5563 myeloma; conditions: oral and subcutaneous routes; cited from earlier work
# [6] = subcutaneous; cited from earlier work
# [7] = intravenous; several instances; autopsy; cited from earlier work
# [8] = acronycine free base; cited from earlier work
compound,measurement,setting,value
COc1cc2c(c3c1c(=O)c1ccccc1n3C)C=CC(C)(C)O2 [acronycine],solubility (qualitative),"[1]; acetone, benzene, listed as base","soluble in acetone and benzene, insoluble in water"
same,solubility,[1]; read-out: solubility in water,2 to 3 µg/mL
same,reduction in the size of tumors,"[2]; aqueous suspension, Svoboda et al",significant reductions in the size of a number of tumors
same,activity in delayed therapy experiments,[2]; delayed therapy,significant activity in delayed therapy experiments
same,"antitumor activity, intravenous","[2]; intravenous, free base",only minimum activity
same,effectiveness by routes of administration,[2]; various routes,effective by various routes of administration
same,tumors against which significant activity was demonstrated,"[2]; wide range of dose levels, Svoboda laboratory",12 of 17
same,activity against adenocarcinoma 755,[3],significant activity
same,activity against C-1498 leukemia,[4],significant activity
same,activity against X-5563 myeloma,[5],significant activity
same,skin irritation or alopecia,[6],no evidence of skin irritation or alopecia
same,blockage of the circulatory system,[7],"blockage of the circulatory system was evidenced, autopsy revealing an actual aortic block by the compound itself"
same,solubility,[8],2 to 3 µg/mL
